Source: PMC7591906, “pHLIP ICG for delineation of tumors and blood flow during fluorescence-guided surgery” (Scientific Reports, 2020)
Peptide text beside a SMILES is read from it. * marks the point of attachment. X1 = CC1(C)C(/C=C/C=C/C=C/C=C2/N(CCCCCC(=O)NCCN3C(=O)CC(*)C3=O)c3ccc4ccccc4c3C2(C)C)=[N+](CCCCS(=O)(=O)[O-])c2ccc3ccccc3c21

How the values were obtained:
implanted tumors = assay: Fluorescence-guided resection of tumors, dose finding; type: in vivo, mice; conditions: tail vein, doses 0.5 to 2.5 mg/kg, resection at 24 and 48 h, Stryker SPY-PHI
Procedure: Targeting of murine and human tumors was shown in 8 different tumor models in athymic female nude mice (strain Hsd Athymic Nude-Foxn1nu) ranging in age from 5 to 6 weeks (obtained from Envigo RMS, Inc). The following tumors were established by subcutaneous injection of 1 x 10^6 cells/0.1 ml/flank in flanks of athymic nude mice: HeLa (humans cervical adenocarcinoma), M4A4 (human epithelial carcinoma), 4T1 (murine breast tumor), A549 (human lung carcinoma), LLC (murine Lewis Lung carcinoma), UM-UC3 (human urinary bladder cancer), and 4 x 10^6 cells/0.1 ml/flank of LNCaP tumor (human prostate cancer). Human MDA-MB-231 (breast adenocarcinoma) tumors were established by injections of 1 x 10^6 cells/0.05 ml in the mammary fat pad. […] Finally, surgery was carried out under fluorescence-guidance to remove tumor and to image the tumor bed using the Stryker SPY-PHI handheld clinical imaging system.

[1] = Kinetics of insertion into POPC liposomes (stopped-flow tryptophan fluorescence); type: physicochemical; conditions: pH drop from pH 8 to pH 5, Trp fluorescence, bi-exponential fit, about 15% of final adjustment
Procedure: POPC (1-palmitoyl-2-oleoyl-sn-glycero-3-phosphocholine, Avanti Polar Lipids, Inc.) liposomes were used in biophysical measurements to mimic cell membranes and investigate the pHLIP ICG interactions with lipid bilayers. Large unilamellar vesicles (LUVs) were prepared by extrusion. POPC dissolved in chloroform was desolvated in a rotary evaporator and placed under high vacuum for 2 hours to create a phospholipid film. Lipids were then rehydrated in phosphate buffer (pH8) and repeatedly extruded through membranes with a pore size of 100 nm to make LUVs.
To follow pHLIP ICG insertion into the lipid bilayer of POPC liposomes in real-time, kinetics measurements were performed using a SFM-300 mixing system (Bio-Logic Science Instruments) in combination with a MOS-450 spectrometer with its temperature control set to 25.0°C. pHLIP ICG pre-mixed with POPC liposomes in phosphate buffer at pH8 were mixed (5 ms dead time) with acid to drop the pH from pH8 to pH5 and promote pHLIP peptide insertion into the bilayers. The insertion process was monitored by recording changes of the tryptophan fluorescence of pHLIP peptide excited at 295 nm and using a cut off filter at 320 nm.

[2] = Pharmacological safety assessment on the central nervous system (FOB) in rats (GLP); type: in vivo, Sprague Dawley rats; conditions: single i.v. bolus 0.218, 0.248, 3.72 and 7.44 mg/kg, up to 24 h post-dose
Procedure: The objective of this GLP study performed at CRL was to evaluate the pharmacological effects of pHLIP ICG on the central nervous system following a single i.v. bolus injection in rats.
Functional observation battery (FOB) tests were performed once prior to dosing and again at 5 minutes, 3 and 24 hours post-dose and included the following assessments: palpebral closure, eye prominence, pupil size, pupillary response, lacrimation, salivation, body tone, extensor thrust, pinna reflex, tactile reflex, overall animal reactivity, auricular startle, air righting reflex, body temperature (rectal). Additional evaluations consisted of mortality and clinical observations.

[3] = test system: 86 enzyme and receptor targets; assay: Safety pharmacology profiling, enzyme and receptor binding panel (Eurofins Panlabs); conditions: 2 µM; all targets except progesterone receptor B
Procedure: The pHLIP ICG enzyme binding assays were performed by Eurofins Panlabs, Inc. according to standard assay protocols. […] The most significant inhibitory effect of pHLIP ICG was observed on progesterone B and was followed by an additional study to identify IC50 values, which were determined by a non-linear least square regression analysis using MathIQTM (ID Business Solutions Ltd., UK). The Ki values were calculated by the equation from Cheng and Prusoff [Cheng, Y., Prusoff, W.H., Biochem. Pharmacol. 22:3099-3108, 1973] using the observed IC50 of pHLIP ICG , the concentration of radioligand employed in the assay, and the historical values for the KD of the ligand (Eurofins Panlabs data). The Hill coefficient (nH), defining the slope of the competitive binding curve, was calculated using MathIQTM. […]

## CC(C)C[C@H](NC(=O)[C@H](Cc1ccc(O)cc1)NC(=O)[C@H](C)NC(=O)[C@H](CCCNC(=N)N)NC(=O)[C@H](Cc1c[nH]c2ccccc12)NC(=O)[C@@H]1CCCN1C(=O)[C@H](CC(N)=O)NC(=O)[C@H](CCC(N)=O)NC(=O)[C@H](CC(=O)O)NC(=O)[C@H](CC(=O)O)NC(=O)[C@H](CSC1CC(=O)N(CCNC(=O)CCCCCN2/C(=C/C=C/C=C/C=C/C3=[N+](CCCCS(=O)(=O)[O-])c4ccc5ccccc5c4C3(C)C)C(C)(C)c3c2ccc2ccccc32)C1=O)NC(=O)[C@H](C)N)C(=O)N[C@@H](CC(=O)O)C(=O)N[C@@H](CC(C)C)C(=O)N[C@@H](CC(C)C)C(=O)N[C@@H](Cc1ccccc1)C(=O)N1CCC[C@H]1C(=O)N[C@H](C(=O)N[C@@H](CC(=O)O)C(=O)N[C@H](C(=O)N[C@@H](CC(C)C)C(=O)N[C@@H](CC(C)C)C(=O)N[C@@H](CC(C)C)C(=O)N[C@@H](CC(=O)O)C(=O)N[C@@H](CC(C)C)C(=O)N[C@@H](CC(C)C)C(=O)N[C@@H](Cc1c[nH]c2ccccc12)C(=O)N[C@@H](C)C(=O)O)[C@@H](C)O)[C@@H](C)O (stereo partly shown) [pHLIP ICG] (H-AC(X1)DDQNPWRAYLDLLFPTDTLLLDLLWA-OH)
Implanted tumors
  Minimal dose sufficient for successful visualization of tumors: 0.5 mg/kg
[1]
  Rate of insertion into lipid bilayer, slow component: 0.077 s⁻¹
[2]
  Effect on the central nervous system (FOB): had no observed effect on the central nervous system
[3]
  Inhibitory effect on 86 enzyme and receptor targets: No inhibitory effect was observed
